Measured values as given in the supplement of paper PMC10307832.

Tests used:
Test in all cases: relative viability (nuclei count vs DMSO), 5 days (fraction); higher = more cells survive
[1] = compound: C=CCNC1=C2C[C@@H](C)C[C@H](OC)[C@H](O)[C@@H](C)/C=C(\C)[C@H](OC(N)=O)[C@@H](OC)/C=C\C=C(/C)C(=O)NC(=CC1=O)C2=O [17-AAG] + Cc1nc(NC(=O)N2CCC[C@H]2C(N)=O)sc1-c1ccnc(C(C)(C)C(F)(F)F)c1 [Alpelisib] (partner 2 µM)
In short: (§1)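 Relative viability is defined as nuclei in treated wells over nuclei in vehicle wells. Duplicate plates were run and medians reported. Lung cancer cell lines in 1536-well plates were dosed by pin tool one day after seeding, with one drug or with a fixed anchor-drug dose plus five library-drug doses (not always all listed) in √10 steps, and nuclei were counted after 5 days.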

[2] = compound: C=CCNC1=C2C[C@@H](C)C[C@H](OC)[C@H](O)[C@@H](C)/C=C(\C)[C@H](OC(N)=O)[C@@H](OC)/C=C\C=C(/C)C(=O)NC(=CC1=O)C2=O [17-AAG] + NC(=O)Nc1cc(-c2cccc(F)c2)sc1C(=O)N[C@H]1CCCNC1 [AZD7762] (partner 0.2 µM)
In short: as §1

[3] = compound: C=CCNC1=C2C[C@@H](C)C[C@H](OC)[C@H](O)[C@@H](C)/C=C(\C)[C@H](OC(N)=O)[C@@H](OC)/C=C\C=C(/C)C(=O)NC(=CC1=O)C2=O [17-AAG] + CS(=O)(=O)N1CCN(Cc2cc3nc(-c4cccc5[nH]ncc45)nc(N4CCOCC4)c3s2)CC1 [Pictilisib] (partner 1 µM)
In short: as §1

[4] = compound: C=CCNC1=C2C[C@@H](C)C[C@H](OC)[C@H](O)[C@@H](C)/C=C(\C)[C@H](OC(N)=O)[C@@H](OC)/C=C\C=C(/C)C(=O)NC(=CC1=O)C2=O [17-AAG] + N=C(N)NC(=N)NCCc1ccccc1 [Phenformin] (partner 250 µM)
In short: as §1

Cell Line: HCC-15
- relative viability ([1]; first compound 0.00128 µM): 0.948
- relative viability ([1]; first compound 0.004048 µM): 0.772
- relative viability ([1]; first compound 0.0128 µM): 0.587
- relative viability ([1]; first compound 0.04048 µM): 0.403
- relative viability ([1]; first compound 0.128 µM): 0.16
- relative viability ([2]; first compound 0.00128 µM): 1.29
- relative viability ([2]; first compound 0.004048 µM): 1.27
- relative viability ([2]; first compound 0.0128 µM): 0.986
- relative viability ([2]; first compound 0.04048 µM): 0.461
- relative viability ([2]; first compound 0.128 µM): 0.158
- relative viability ([3]; first compound 0.00128 µM): 0.73
- relative viability ([3]; first compound 0.004048 µM): 0.774
- relative viability ([3]; first compound 0.0128 µM): 0.508
- relative viability ([3]; first compound 0.04048 µM): 0.187
- relative viability ([3]; first compound 0.128 µM): 0.121
- relative viability ([4]; first compound 0.00128 µM): 0.433
- relative viability ([4]; first compound 0.004048 µM): 0.33
- relative viability ([4]; first compound 0.0128 µM): 0.146
- relative viability ([4]; first compound 0.04048 µM): 0.124
- relative viability ([4]; first compound 0.128 µM): 0.107

Cell Line: HCC-44
- relative viability ([1]; first compound 0.00128 µM): 0.792
- relative viability ([1]; first compound 0.004048 µM): 0.742
- relative viability ([1]; first compound 0.0128 µM): 0.656
- relative viability ([1]; first compound 0.04048 µM): 0.449
- relative viability ([1]; first compound 0.128 µM): 0.138
- relative viability ([2]; first compound 0.00128 µM): 1
- relative viability ([2]; first compound 0.004048 µM): 1.02
- relative viability ([2]; first compound 0.0128 µM): 1.03
- relative viability ([2]; first compound 0.04048 µM): 0.973
- relative viability ([2]; first compound 0.128 µM): 0.398
- relative viability ([3]; first compound 0.00128 µM): 0.623
- relative viability ([3]; first compound 0.004048 µM): 0.564
- relative viability ([3]; first compound 0.0128 µM): 0.319
- relative viability ([3]; first compound 0.04048 µM): 0.152
- relative viability ([3]; first compound 0.128 µM): 0.113
- relative viability ([4]; first compound 0.00128 µM): 0.22
- relative viability ([4]; first compound 0.004048 µM): 0.285
- relative viability ([4]; first compound 0.0128 µM): 0.158
- relative viability ([4]; first compound 0.04048 µM): 0.0925
- relative viability ([4]; first compound 0.128 µM): 0.0873

Cell Line: IA-LM
- relative viability ([1]; first compound 0.00128 µM): 0.719
- relative viability ([1]; first compound 0.004048 µM): 0.813
- relative viability ([1]; first compound 0.0128 µM): 0.657
- relative viability ([1]; first compound 0.04048 µM): 0.303
- relative viability ([1]; first compound 0.128 µM): 0.105
- relative viability ([3]; first compound 0.00128 µM): 0.325
- relative viability ([3]; first compound 0.004048 µM): 0.366
- relative viability ([3]; first compound 0.0128 µM): 0.182
- relative viability ([3]; first compound 0.04048 µM): 0.0706
- relative viability ([3]; first compound 0.128 µM): 0.0517

Cell Line: NCI-H520
- relative viability ([1]; first compound 0.00128 µM): 0.993
- relative viability ([1]; first compound 0.004048 µM): 0.838
- relative viability ([1]; first compound 0.0128 µM): 0.839
- relative viability ([1]; first compound 0.04048 µM): 0.155
- relative viability ([1]; first compound 0.128 µM): 0.132
- relative viability ([3]; first compound 0.00128 µM): 0.275
- relative viability ([3]; first compound 0.004048 µM): 0.254
- relative viability ([3]; first compound 0.0128 µM): 0.207
- relative viability ([3]; first compound 0.04048 µM): 0.167
- relative viability ([3]; first compound 0.128 µM): 0.161
- relative viability ([4]; first compound 0.00128 µM): 0.617
- relative viability ([4]; first compound 0.004048 µM): 0.511
- relative viability ([4]; first compound 0.0128 µM): 0.406
- relative viability ([4]; first compound 0.04048 µM): 0.234
- relative viability ([4]; first compound 0.128 µM): 0.165

Cell Line: NCI-H522
- relative viability ([2]; first compound 0.00128 µM): 0.845
- relative viability ([2]; first compound 0.004048 µM): 0.857
- relative viability ([2]; first compound 0.0128 µM): 0.569
- relative viability ([2]; first compound 0.04048 µM): 0.51
- relative viability ([2]; first compound 0.128 µM): 0.393
- relative viability ([4]; first compound 0.00128 µM): 0.627
- relative viability ([4]; first compound 0.004048 µM): 0.599
- relative viability ([4]; first compound 0.0128 µM): 0.635
- relative viability ([4]; first compound 0.04048 µM): 0.294
- relative viability ([4]; first compound 0.128 µM): 0.471

Cell Line: NCI-H661
- relative viability ([1]; first compound 0.00128 µM): 0.573
- relative viability ([1]; first compound 0.004048 µM): 1
- relative viability ([1]; first compound 0.0128 µM): 0.728
- relative viability ([1]; first compound 0.04048 µM): 0.347
- relative viability ([1]; first compound 0.128 µM): 0.188
- relative viability ([3]; first compound 0.00128 µM): 0.39
- relative viability ([3]; first compound 0.004048 µM): 0.534
- relative viability ([3]; first compound 0.0128 µM): 0.363
- relative viability ([3]; first compound 0.04048 µM): 0.259
- relative viability ([3]; first compound 0.128 µM): 0.275
- relative viability ([4]; first compound 0.00128 µM): 0.304
- relative viability ([4]; first compound 0.004048 µM): 0.293
- relative viability ([4]; first compound 0.0128 µM): 0.293
- relative viability ([4]; first compound 0.04048 µM): 0.256
- relative viability ([4]; first compound 0.128 µM): 0.188

Cell Line: NCI-H1299
- relative viability ([1]; first compound 0.00128 µM): 1.04
- relative viability ([1]; first compound 0.004048 µM): 1.05
- relative viability ([1]; first compound 0.0128 µM): 1
- relative viability ([1]; first compound 0.04048 µM): 0.94
- relative viability ([1]; first compound 0.128 µM): 0.729
- relative viability ([3]; first compound 0.00128 µM): 0.802
- relative viability ([3]; first compound 0.004048 µM): 0.791
- relative viability ([3]; first compound 0.0128 µM): 0.698
- relative viability ([3]; first compound 0.04048 µM): 0.151
- relative viability ([3]; first compound 0.128 µM): 0.0717

Cell Line: NCI-H1563
- relative viability ([1]; first compound 0.00128 µM): 0.964
- relative viability ([1]; first compound 0.004048 µM): 0.853
- relative viability ([1]; first compound 0.0128 µM): 0.616
- relative viability ([1]; first compound 0.04048 µM): 0.591
- relative viability ([1]; first compound 0.128 µM): 0.514
- relative viability ([3]; first compound 0.00128 µM): 0.67
- relative viability ([3]; first compound 0.004048 µM): 0.647
- relative viability ([3]; first compound 0.0128 µM): 0.604
- relative viability ([3]; first compound 0.04048 µM): 0.614
- relative viability ([3]; first compound 0.128 µM): 0.563
- relative viability ([4]; first compound 0.00128 µM): 0.657
- relative viability ([4]; first compound 0.004048 µM): 0.594
- relative viability ([4]; first compound 0.0128 µM): 0.52
- relative viability ([4]; first compound 0.04048 µM): 0.464
- relative viability ([4]; first compound 0.128 µM): 0.473

Cell Line: NCI-H1648
- relative viability ([2]; first compound 0.004048 µM): 0.854
- relative viability ([2]; first compound 0.0128 µM): 0.558
- relative viability ([2]; first compound 0.04048 µM): 0.626
- relative viability ([2]; first compound 0.128 µM): 0.325

Cell Line: NCI-H1650
- relative viability ([3]; first compound 0.00128 µM): 0.49
- relative viability ([3]; first compound 0.004048 µM): 0.212
- relative viability ([3]; first compound 0.0128 µM): 0.128
- relative viability ([3]; first compound 0.04048 µM): 0.173
- relative viability ([3]; first compound 0.128 µM): 0.144
- relative viability ([4]; first compound 0.00128 µM): 0.294
- relative viability ([4]; first compound 0.004048 µM): 0.15
- relative viability ([4]; first compound 0.0128 µM): 0.146
- relative viability ([4]; first compound 0.04048 µM): 0.147
- relative viability ([4]; first compound 0.128 µM): 0.157
